In patent publication US20260070929A1, “METHODS AND COMPOSITIONS FOR MODULATING KRAS(G12D)” (Ranok Therapeutics (Hangzhou) Co. LTD., priority 2022, published 2026):
Where two headings read alike, the source gives them in different places.

Assays:
[1] = molecular target: T1, KRAS(G12D)/SOS1 (Homo sapiens, UniProt P01116, G12D); experiment: KRAS(G12D)/SOS1 homogeneous time-resolved fluorescence (HTRF) assay; assay type: binding; details: absence of GTP; 4° C., 3 hr
T1 construct: purchased Cisbio 63ADK000CB17PEH
Outline: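 Disruption of the KRAS(G12D)/SOS1 pairing, in the absence of GTP, was read by time-resolved FRET after a 3 hr sealed incubation at 4 °C. Test compounds spanned 20 µM down to 1.02 nM in 3-fold steps. IC50 values correspond to half-maximal inhibition.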

[2] = system: ASPC1 pancreatic adenocarcinoma cells [homozygous G12D]; experiment: Cancer cell line proliferation (CellTiter-Glo), ASPC1; assay type: cell-based; details: 72 hr treatment, read-out: ASPC-1 CTG (EC50)
Outline: (§1)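 Cells were seeded at 4,000/well and grown 72 hr at 37° C./5% CO2, then exposed for 72 hr to 3-fold serial compound dilutions prepared from 20 μM to 1.02 nM (0.5% DMSO final). Viability was read with CellTiter-Glo and EC50 values were calculated.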

[3] = system: A-427 lung carcinoma cells [heterozygous G12D]; experiment: Cancer cell line proliferation (CellTiter-Glo), A-427; assay type: cell-based; details: A-427 cells, 72 hr treatment, read-out: A427 CTG (EC50)
Outline: as §1

[4] = system: AGS gastric carcinoma cells [heterozygous G12D]; experiment: Cancer cell line proliferation (CellTiter-Glo), AGS; assay type: cell-based; details: 72 hr treatment, read-out: AGS CTG (EC50)
Outline: as §1

[5] = system: SW1990 pancreatic adenocarcinoma cells [homozygous G12D]; experiment: Cancer cell line proliferation (CellTiter-Glo), SW1990; assay type: cell-based; details: 72 hr treatment, read-out: SW1990 CTG (EC50)
Outline: as §1

T1 sequence (P01116 1-188 isoform P01116-2 G12D): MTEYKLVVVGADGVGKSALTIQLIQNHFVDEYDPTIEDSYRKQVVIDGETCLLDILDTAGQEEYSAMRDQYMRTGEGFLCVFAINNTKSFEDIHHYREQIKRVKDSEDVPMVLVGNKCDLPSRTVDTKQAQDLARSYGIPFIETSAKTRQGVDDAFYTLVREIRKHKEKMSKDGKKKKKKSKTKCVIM

SMILES	IC50 [1]	EC50 ([2]; Homo sapiens, ASPC1, 72 h)	EC50 ([3]; Homo sapiens)	EC50 ([4]; Homo sapiens)	EC50 ([5]; Homo sapiens)	EC50 [2]	EC50 [3]	EC50 [4]	EC50 [5]
C#Cc1cccc2cc(O)cc(-c3ncc4c(N5CC6CCC(C5)N6)nc(OC[C@@H]5C[C@H](CN6CCN(Cc7ccc(-n8c(C(=O)NCC(F)(F)F)nnc8-c8cc(C(C)C)c(O)cc8O)cc7)CC6)CN5C)nc4c3F)c12 [Compound 123]	< 0.1 µM	0.1 to 1 µM	0.1 to 1 µM	< 0.1 µM	< 0.1 µM	–	–	–	–
C#Cc1cccc2cc(O)cc(-c3ncc4c(N5CC6CCC(C5)N6)nc(OCC5(CN6CCN(CC7CCN(c8ccc(-n9c(C(=O)NCC)nnc9-c9cc(C(C)C)c(O)cc9O)cc8)CC7)CC6)CC5)nc4c3F)c12 [Compound 124]	< 0.1 µM	0.1 to 1 µM	< 0.1 µM	< 0.1 µM	< 0.1 µM	–	–	–	–
C#Cc1cccc2cc(O)cc(-c3ncc4c(N5CC6CCC(C5)N6)nc(OCC5(CN6CCN(CC7CCN(Cc8ccc9c(c8)CN(C(=O)c8cc(C(C)C)c(O)cc8O)C9)CC7)CC6)CC5)nc4c3F)c12 [Compound 125]	< 0.1 µM	–	–	–	–	0.1 to 1 µM	0.1 to 1 µM	< 0.1 µM	< 0.1 µM
C#Cc1cccc2cc(O)cc(-c3ncc4c(N5CC6CCC(C5)N6)nc(OCC5(CN6CCN(CC7CCN(Cc8ccc(-n9c(C(=O)NC(C)C(F)(F)F)nnc9-c9cc(C(C)C)c(O)cc9O)cc8)CC7)CC6)CC5)nc4c3F)c12 (centres unmarked) [Compound 126]	< 0.1 µM	< 0.1 µM	< 0.1 µM	< 0.1 µM	< 0.1 µM	–	–	–	–
C#Cc1cccc2cc(O)cc(-c3ncc4c(N5CC6CCC(C5)N6)nc(OCC5(CN6CCN(CC7CCN(Cc8ccc(-n9c(C(=O)NCC(F)(F)F)nnc9-c9cc(C(C)C)c(O)cc9O)cc8)CC7)CC6)CC5)nc4c3F)c12 [Compound 127]	< 0.1 µM	< 0.1 µM	< 0.1 µM	< 0.1 µM	< 0.1 µM	–	–	–	–
CC(C)c1cc(C(=O)N2Cc3ccc(CN4CCC(CN5CCN(CC6(COc7nc(N8CC9CCC(C8)N9)c8cnc(-c9cccc%10ccccc9%10)c(F)c8n7)CC6)CC5)CC4)cc3C2)c(O)cc1O [Compound 128]	< 0.1 µM	0.1 to 1 µM	0.1 to 1 µM	0.1 to 1 µM	0.1 to 1 µM	–	–	–	–
C#Cc1cccc2cc(O)cc(-c3ncc4c(N5CC6CNC(C6)C5)nc(OCC5(CN6CCN(CC7CCN(Cc8ccc9c(c8)CN(C(=O)c8cc(C(C)C)c(O)cc8O)C9)CC7)CC6)CC5)nc4c3F)c12 (centres unmarked) [Compound 129]	< 0.1 µM	> 1 µM	0.1 to 1 µM	0.1 to 1 µM	0.1 to 1 µM	–	–	–	–
C#Cc1cccc2cc(O)cc(-c3ncc4c(N5CC6CCC(C5)N6)nc(OCC5(CN6CCN(Cc7ccc(-n8c(C(=O)NCC(F)(F)F)nnc8-c8cc(C(C)C)c(O)cc8O)cc7)CC6)CC5)nc4c3F)c12 [Compound 130]	< 0.1 µM	0.1 to 1 µM	< 0.1 µM	< 0.1 µM	< 0.1 µM	–	–	–	–
C#Cc1cccc2cc(O)cc(-c3ncc4c(N5CC6CCC(C5)N6)nc(OCC5(CN6CCN(Cc7ccc8c(c7)CN(C(=O)c7cc(C(C)C)c(O)cc7O)C8)CC6)CC5)nc4c3F)c12 [Compound 131]	< 0.1 µM	0.1 to 1 µM	0.1 to 1 µM	< 0.1 µM	< 0.1 µM	–	–	–	–
C#Cc1cccc2cc(O)cc(-c3ncc4c(N5CC6CCC(C5)N6)nc(OCC5(CN6CCC(OC7CCN(Cc8ccc(-n9c(C(=O)NCC(F)(F)F)nnc9-c9cc(C(C)C)c(O)cc9O)cc8)CC7)CC6)CC5)nc4c3F)c12 [Compound 132]	< 0.1 µM	< 0.1 µM	< 0.1 µM	< 0.1 µM	< 0.1 µM	–	–	–	–
C#Cc1cccc2cc(O)cc(-c3ncc4c(N5CC6CCC(C5)N6C(=O)C(F)(F)F)nc(OCC5(CN6CCN(CC7CCN(Cc8ccc9c(c8)CN(C(=O)c8cc(C(C)C)c(O)cc8O)C9)CC7)CC6)CC5)nc4c3F)c12 [Compound 142]	0.1 to 1 µM	0.1 to 1 µM	0.1 to 1 µM	0.1 to 1 µM	0.1 to 1 µM	–	–	–	–
C#Cc1cccc2cc(O)cc(-c3ncc4c(N5CC6CCC(C5)N6C(=O)C(F)(F)F)nc(OCC5(CN6CCN(CC7CCN(Cc8ccc(-n9c(C(=O)NCC(F)(F)F)nnc9-c9cc(C(C)C)c(O)cc9O)cc8)CC7)CC6)CC5)nc4c3F)c12 [Compound 143]	0.1 to 1 µM	0.1 to 1 µM	< 0.1 µM	< 0.1 µM	< 0.1 µM	–	–	–	–
C#Cc1cccc2cc(O)cc(-c3ncc4c(N5CC6CCC(C5)N6)nc(OCC5(CN6CCN(CC7CCN(Cc8ccc9c(c8)CN(C(=O)c8cc(C(C)C)c(OC)cc8O)C9)CC7)CC6)CC5)nc4c3F)c12 [Compound 144]	< 0.1 µM	0.1 to 1 µM	0.1 to 1 µM	< 0.1 µM	0.1 to 1 µM	–	–	–	–
C#Cc1c(F)ccc2cc(O)cc(-c3ncc4c(N5CC6CCC(C5)N6)nc(OCC5(CN6CCN(CC7CCN(c8ccc(-n9c(C(=O)NCC)nnc9-c9cc(C(C)C)c(O)cc9O)cc8)CC7)CC6)CC5)nc4c3F)c12 [Compound 145]	< 0.1 µM	0.1 to 1 µM	< 0.1 µM	< 0.1 µM	< 0.1 µM	–	–	–	–
C#Cc1c(F)ccc2cc(O)cc(-c3ncc4c(N5CC6CCC(C5)N6C(=O)C(F)(F)F)nc(OCC5(CN6CCN(CC7CCN(Cc8ccc(-n9c(C(=O)NC(C)C(F)(F)F)nnc9-c9cc(C(C)C)c(O)cc9O)cc8)CC7)CC6)CC5)nc4c3F)c12 (centres unmarked) [Compound 146]	0.1 to 1 µM	0.1 to 1 µM	< 0.1 µM	< 0.1 µM	< 0.1 µM	–	–	–	–
C#Cc1c(F)ccc2cc(O)cc(-c3ncc4c(N5CC6CCC(C5)N6C(=O)C(F)(F)F)nc(OCC5(CN6CCN(CC7CCN(Cc8ccc(-n9c(C(=O)NCC)nnc9-c9cc(C(C)C)c(O)cc9O)cc8)CC7)CC6)CC5)nc4c3F)c12 [Compound 147]	< 0.1 µM	0.1 to 1 µM	< 0.1 µM	< 0.1 µM	< 0.1 µM	–	–	–	–
C#Cc1c(F)ccc2cc(O)cc(-c3ncc4c(N5CC6CCC(C5)N6)nc(OCC5(CN6CCN(CC7CCN(Cc8ccc(-n9c(C(=O)NCC)nnc9-c9cc(C(C)C)c(O)cc9O)cc8)CC7)CC6)CC5)nc4c3F)c12 [Compound 148]	< 0.1 µM	< 0.1 µM	< 0.1 µM	< 0.1 µM	< 0.1 µM	–	–	–	–
C#Cc1c(F)ccc2cc(O)cc(-c3ncc4c(N5CC6CCC(C5)N6)nc(OCC5(CN6CCN(CC7CCN(Cc8ccc(-n9c(C(=O)NCC)nnc9-c9cc(CC)c(O)cc9O)cc8)CC7)CC6)CC5)nc4c3F)c12 [Compound 149]	< 0.1 µM	< 0.1 µM	< 0.1 µM	< 0.1 µM	< 0.1 µM	–	–	–	–
C#Cc1cccc2cc(O)cc(-c3ncc4c(N5CC6CCC(C5)N6C(C)=O)nc(OCC5(CN6CCN(CC7CCN(Cc8ccc(-n9c(C(=O)NC(C)C(F)(F)F)nnc9-c9cc(C(C)C)c(O)cc9O)cc8)CC7)CC6)CC5)nc4c3F)c12 (centres unmarked) [Compound 150]	0.1 to 1 µM	0.1 to 1 µM	< 0.1 µM	< 0.1 µM	< 0.1 µM	–	–	–	–
C#Cc1cccc2cc(O)cc(-c3ncc4c(N5CC6CCC(C5)N6C(C)=O)nc(OCC5(CN6CCN(CC7CCN(Cc8ccc9c(c8)CN(C(=O)c8cc(C(C)C)c(O)cc8O)C9)CC7)CC6)CC5)nc4c3F)c12 [Compound 151]	< 0.1 µM	0.1 to 1 µM	0.1 to 1 µM	0.1 to 1 µM	0.1 to 1 µM	–	–	–	–
C#Cc1cccc2cc(O)cc(-c3ncc4c(N5CC6CCC(C5)N6)nc(OCC5(CN6CCN(CC7CCN(Cc8ccc9c(c8)CN(C(=O)c8cc(C(C)C)c(O)cc8OC)C9)CC7)CC6)CC5)nc4c3F)c12 [Compound 152]	< 0.1 µM	0.1 to 1 µM	0.1 to 1 µM	< 0.1 µM	< 0.1 µM	–	–	–	–
C#Cc1c(F)ccc2cc(O)cc(-c3ncc4c(N5CC6CCC(C5)N6)nc(OCC5(CN6CCN(CC7CCN(Cc8ccc(-n9c(C(=O)NC(C)C(F)(F)F)nnc9-c9cc(C(C)C)c(O)cc9O)cc8)CC7)CC6)CC5)nc4c3F)c12 (centres unmarked) [Compound 153]	< 0.1 µM	< 0.1 µM	< 0.1 µM	< 0.1 µM	< 0.1 µM	–	–	–	–
C#Cc1c(F)ccc2cc(O)cc(-c3ncc4c(N5CC6CCC(C5)N6)nc(OCC5(CN6CCN(CC7CCN(Cc8ccc(-n9c(C(=O)NCC(F)(F)F)nnc9-c9cc(C(C)C)c(O)cc9O)cc8)CC7)CC6)CC5)nc4c3F)c12 [Compound 154]	< 0.1 µM	< 0.1 µM	< 0.1 µM	< 0.1 µM	< 0.1 µM	–	–	–	–
C#Cc1cccc2cc(O)cc(-c3ncc4c(N5CC6CCC(C5)N6)nc(OCC5(CN6CCN(Cc7ccc(-n8c(C(=O)NC(C)C(F)(F)F)nnc8-c8cc(C(C)C)c(O)cc8O)cc7)CC6)CC5)nc4c3F)c12 (centres unmarked) [Compound 155]	< 0.1 µM	0.1 to 1 µM	0.1 to 1 µM	0.1 to 1 µM	0.1 to 1 µM	–	–	–	–
C#Cc1c(F)ccc2cc(O)cc(-c3nc(OC)c4c(N5CC6CCC(C5)N6)nc(OCC5(CN6CCN(CC7CCN(Cc8ccc9c(c8)CN(C(=O)c8cc(C(C)C)c(O)cc8O)C9)CC7)CC6)CC5)nc4c3F)c12 [Compound 156]	< 0.1 µM	< 0.1 µM	0.1 to 1 µM	< 0.1 µM	< 0.1 µM	–	–	–	–
